# Legend:
# rat brain PKC = assay: PepTag non-radioactive PKC kinase activity assay; conditions: FIG. 1; TPA 100-0.01 ng/ml; ether extract final dilution 1 in 5; aqueous layer and crude sap diluted 1/25
# Protocol: The kinase activity of rat brain PKC (Promega) was determined using the Peptag™ Non-Radioactive Protein Kinase Kit (Promega). Using agarose gel electrophoresis the technique visualises the opposing electrostatic charge of a fluorescently labeled peptide ([sequence]) compared to the phosphorylated version of the same peptide.
# The reaction mixture was separated by gel electrophoresis, showing migration of the unreacted substrate (a) to the anode (top), and the product (b), which is more negatively charged because of phosphorylation by PKC, moving towards the cathode (bottom).
# [1] = system: Human peripheral blood mononuclear cells (PBMC); assay: Phagocytic activity of PBMC, nitroblue tetrazolium uptake; type: cell-based; conditions: 100 ng/mL; 20 min; controls <2%
# Protocol: Human peripheral blood mononuclear cells (PBMC) prepared by standard Ficoll separation comprise approximately 5% monocytes. PBMC were incubated with dihydroethidium, a reduced form of the dye which becomes fluorescent when oxidized by a respiratory burst, then treated in 10% FCS-RPMI 1640 at 37° C. for 15 min with crude E. peplus extract diluted 1/1000 or 100 ng/mL TPA and analyzed by flow cytometry using conventional methods (Handbook of Flow Cytometry Methods, p. 151) The mean channel numbers for fluorescence were 618 (controls) and 818 (E. peplus extract diluted 1/1000). […] Phagocytic activity was determined by a conventional method (Hudson and Hay, Practical Immunology, 3rd edition, p. 74). […] The average of three fields gave figures of <2% (controls), 10% (TPA) and 8.7% (E. peplus sap) cells stained blue.
# [2] = system: latently HIV-1 infected cell line (U1); assay: Activation of latent HIV from U1 cells (p24 ELISA); type: cell-based, HIV-1 LAI strain; conditions: 20 hr, FIG. 7
# From the text: However, the regimen is very burdensome, requiring strict adherence to prevent a recurrence of viraemia. Long-lived cells […], such as CD4^+ cells, act as a major latent reservoir and enable the virus to avoid anti-retroviral chemotherapy or immune system surveillance. There is, therefore, an urgent need to find an agent which activates latent virus from the infected cells. Activated virus could then be killed by aggressive anti-retroviral chemotherapy and it has been hypothesized that immune system surveillance could also be improved under these conditions. Such an agent could have utility in other disease states in which virus is sequestered in infected cells, e.g. herpes infections. Anti-cancer agents have been widely investigated as potential anti-HIV agents. […] However, PMA is a known tumor promoter. A latently HIV-1 infected cell line (U1), derived from the promonocytic cell line U937 after infection with HIV-1 LAI strain, was used in these experiments. In the absence of activation, no or little virus (measured as p24 production) is produced by the U1 cell line. […]
# Supernatants were collected and viral replication monitored by determination of the amounts of HIV p24 gag protein in the culture supernatants by ELISA, using a NEN Life Science HIV-1 p24 ELISA kit. p24 values were calculated from OD values using a standard curve.
# [3] = system: Peripheral blood mononuclear cells (PBMC); assay: Respiratory burst (H2O2) in PBMC, DCFH-DA flow cytometry; type: cell-based; conditions: 15 min at 37° C.; granulocytes, monocytes, lymphocytes
# Protocol: Experiments were also carried out using 2′,7′-dichlorofluorescein diacetate (DCFH-DA) to measure the production of H2O2.(J P Robinson, Oxidative burst methods, in Handbook of Flow Cytometry Methods, Wiley-Liss Inc, pp147-149, 1993). H2O2 oxidizes the non-fluorescent probe (DCFH-DA) to a fluorescent probe that can then be detected by a flow cytometer. Peripheral blood mononuclear cells (PBMC) were extracted from a donor blood sample by lysis of heparinized blood and used in a suspension of 1×10^6/mL of phosphate buffer, pH 7.3. The cells were then incubated with DCFH-DA (1 μL/mL of 20 mM stock) for 15 minutes to allow it to be taken up and trapped by hydrolysis with cellular esterases. The cells were then stimulated by test compounds for 15 min at 37° C. Controls included in the experiment were unloaded control (cells with no DCFH-DA) and loaded control (cells with DCFH-DA, but no stimulation). These were used to monitor the non-specific oxidation of unstimulated cells. The cells were then analyzed on the flow cytometer (excitation at 488 nm, emission at 525±20 nm), gating each sample for individual cell populations-granulocytes, monocytes and lymphocytes (Table 3).
# HIV-strain pNL4-3 = assay: HIV-1 replication in acutely infected PBMC (CA-p24 ELISA); type: cell-based
# Protocol: Experiments were conducted to assess the effect of the compounds of the instant invention on HIV-1 replication in acutely infected T cells. Peripheral blood mononuclear cells (PBMC) were obtained from non-HIV-1, non-HIV-2, non-Hepatitis B/C infected donors, stimulated with phytohemagglutinin-M and grown in culture media supplemented with 10 U/mL interleukin-2. The activated PBMC were infected with […] (Low Titre) and 100 ng (High Titre) of CA-p24 equivalents of the HIV-strain pNL4-3. Cells were infected for two hr after which, the virus was removed and the cells were washed with culture media. Equivalent numbers of cells were seeded into 24 well plates and compounds were added to the cultured cells that included: TPA at 8 riM and 80 nM, Ingenol at 280 nM, PEP003 at 500 nM, 50 nM and 5 nM, or PEP004 at dilutions of 1×10^4 and 1×10^5 from the stock (final concentrations). In addition, uninfected activated PBMC were grown in the presence of TPA (80 nM), Ingenol (280 nM), PEP003 (500 nM) and PEP004 (1×10^4 dilution). Other cultures were neither infected nor treated with any compound, or infected but not treated with any compound. Supernatant was removed from each culture at day 0, 3, 7, and 10. The amount of HIV-1 CA-p24 was determined using a commercially available ELISA assay. Three independent experiments were performed.
# [4] = system: EBV in Burkitt's lymphoma cell lines (MutuI and BL74); assay: EBV activation in Burkitt's lymphoma cell lines (VCA western blot); type: cell-based
# Protocol: To ensure that equal amounts of each sample were analyzed, the gels were stained with Coomassie blue and the loadings were adjusted to make them equal. […] Next the PEP003 and PEP004 were assayed on two Burkitt's lymphoma cell lines and an LCL. This time only concentrations of 10^−5 and 10^−7 were used.
# [5] = system: peripheral blood mononuclear cells (PBMCs); assay: Phagocytosis with fluorescent beads; type: cell-based; conditions: whole heparinized blood, 30 min at 37° C.
# Protocol: Phagocytosis by peripheral blood mononuclear cells (PBMCs) was assayed (Steinkamp et al., 1982) using 1 μm Fluoresbrite™ yellow-green fluorescent latex spheres (Polysciences, Inc., Warrington, Pa.). A sample of whole, heparinized blood was treated with drug and 5×10E7 fluorescent latex beads in 10 μL of PBS added per mL of suspension. Cells were incubated and maintained in suspension for 30 min by means of a shaker platform at 37° C. The stirnulated and non-stimulated samples were then lysed to isolate PBMCs. The PBMCs were run on the flow cytometer measuring FITC (excitation at 488 nm, emission at 525±20 nm), gated for fluorescence (phagocytosed spheres) and light scatter (cell size).
compound,measurement,setting,value
"CCCCCCCCCCCCCC(=O)O[C@@H]1[C@@H](C)[C@@]2(O)[C@@H](C=C(CO)C[C@]3(O)C(=O)C(C)=C[C@@H]23)C2C(C)(C)[C@@]21OC(C)=O (single isomer, unassigned) [TPA]",activation of PKC (phosphorylation of fluorescent PepTag substrate),rat brain PKC,showed activation of PKC
same,cells stained blue (NBT),[1],10%
same,activation of HIV from U1 cells (p24 production),[2],activated HIV from U1 cells
same,"induction of a respiratory burst (H2O2, DCFH-DA)",[3],respiratory burst seen
same,reduction of HIV-1 replication rate,HIV-strain pNL4-3; 8 nM,~38%
same,reduction of HIV-1 replication rate,HIV-strain pNL4-3; 80 nM,~98%
same,induction of VCA in MutuI cells,[4],TPA did not
same,stimulation of phagocytosis of fluorescent latex beads,[5],stimulate phagocytosis in PBMCs

# From patent US20030195168A1, “Therapeutic agents - III” (priority 2000, published 2003)
